According to ChEMBL document CHEMBL1201862, “PubChem BioAssay data set” (2004):
The source made the active and inactive calls.

Assays:
[1] = microbe, parasite or virus in culture; format: functional; conditions: Mycobacterium tuberculosis
[2] = A High Throughput Confirmatory Assay used to Identify Novel Compounds that Inhibit Mycobacterium Tuberculosis in the absence of Glycerol.; format: functional
BJ [3] = test: cells; format: functional, cell-based; conditions: Homo sapiens
[4] = Luminescence-based dose response cell-based high throughput screening assay for cytotoxic compounds using the IEC-6 intestinal epithelial cell line. [Related pubchem assays: 1858 (Summary AID.), 1825 (Counterscreen.), 1907 (Confirmation screen.)]; format: functional
BJ [5] = test: BJ-TERT-LT-ST fibroblast viability loss – cell-based, RAS-independent, luminescence, dose response (AID 1935); format: functional; conditions: Homo sapiens;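 note: BJ fibroblasts immortalized with TERT plus LT and ST oncogenes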
BJ [6] = test: BJ-TERT fibroblast viability loss – cell-based, RAS-independent, luminescence, dose response (AID 1933); format: functional; conditions: Homo sapiens
[7] = DRD fibroblast viability loss – cell-based, non-viral oncogenic, luminescence, dose response (AID 1934); format: functional; conditions: Homo sapiens
[8] = HEK-293T viability loss after treatment – luminescence, T-cell screen hits, cytotoxicity control for TCR NF-kB inhibitor project, dose response (AID 489026); format: functional, cell-based;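 note: cells exposed to compound about 14 hours before the viability readout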
[9] = target: Sphingosine 1-phosphate receptor 3 (Homo sapiens, UniProt Q99500); test: Dose response cell-based high throughput screening assay for antagonists of the Sphingosine 1-Phosphate Receptor 3 (S1P3). [Related pubchem assays: 1429, 485 ]; format: functional
[10] = target: 5-hydroxytryptamine receptor 1E (Homo sapiens, UniProt P28566); test: Counterscreen assay for S1P3 antagonists: Dose response cell-based high throughput screening assay to identify antagonists of the 5-Hydroxytryptamine Receptor Subtype 1E (5HT1E). [Related pubchem assays: 1429, 485 ]; format: functional
[11] = target: Sphingosine 1-phosphate receptor 2 (Homo sapiens, UniProt O95136); test: Dose Response Cell Based Assay for Agonists of the S1P2 Receptor of Purchased Analogues. [Related pubchem assays: 729, 843, 854, 736 ]; format: functional
[12] = viability inhibitors of stage V gametocytes – luminescence, dose response (AID 1117278); format: functional, cell-based;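 note: gametocytes exposed to compound for 24 hours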
[13] = Absorbance Microorganism-Based Dose Response Follow up to Identify Inhibitors of Streptokinase Expression. [Related pubchem assays: 1677 (Project Summary), 1915, 1914, 1902 (Retest at Dose), 1900 (Counter Screen), 1662 (Primary HTS)]
[14] = tested on: Streptococcus sp. 'group A'; test: Streptococcus pyogenes SK(-)GAS viability under kanamycin – luminescence, BacTiterGlo, confirmation, counter-screen for streptokinase expression inhibitor project, dose response (AID 1900); format: functional, organism-based
Streptokinase A [15] = target: T1, Streptokinase A (Streptococcus pyogenes serotype M1, UniProt P10520); test: Absorbance Microorganism-Based Dose Response Follow up to Identify Inhibitors of Streptokinase Expression. [Related pubchem assays: 1677 (Project Summary), 1915, 1914, 1902 (Retest at Dose), 1900 (Counter Screen), 1662 (Primary HTS)]; format: functional, Streptococcus pyogenes M1 GAS
T1 sequence (P10520 whole entry): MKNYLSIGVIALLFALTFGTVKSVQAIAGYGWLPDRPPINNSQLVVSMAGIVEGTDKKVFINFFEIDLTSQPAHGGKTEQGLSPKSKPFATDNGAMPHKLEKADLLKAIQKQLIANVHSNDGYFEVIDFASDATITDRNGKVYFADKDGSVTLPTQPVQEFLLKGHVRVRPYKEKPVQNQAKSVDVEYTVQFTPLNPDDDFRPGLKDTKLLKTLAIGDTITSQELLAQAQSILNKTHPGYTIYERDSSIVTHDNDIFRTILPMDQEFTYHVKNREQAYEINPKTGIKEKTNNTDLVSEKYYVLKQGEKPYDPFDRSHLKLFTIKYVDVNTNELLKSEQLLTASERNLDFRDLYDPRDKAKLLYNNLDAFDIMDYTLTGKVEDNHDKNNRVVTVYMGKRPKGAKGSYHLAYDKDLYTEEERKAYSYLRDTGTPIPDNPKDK

Streptococcus [16] = test: GAS UMAA2166 growth inhibition – luminescence, BacTiterGlo, counter-screen for streptokinase expression inhibitor project, dose response (AID 1915); format: functional, organism-based;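 note: potency for reduction of bacterial viability or growth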
Streptokinase A [17] = target: T1, Streptokinase A; test: viability-normalized secreted streptokinase activity reduction – plasminogen activation absorbance, OD405, dose response (AID 1914); format: functional, Streptococcus pyogenes M1 GAS;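 note: secreted streptokinase activity via plasminogen activation per viability signal from cell pellet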
[18] = viability loss in human Jurkat cells – cell-based, luminescence, cytotoxicity control for P. falciparum gametocyte viability project, dose response (AID 1117277); format: functional;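 note: potency reflects loss of cellular ATP meaning fewer viable cells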
Streptococcus [19] = test: Luminescence Microorganism-Based Dose Response Follow up to Identify Compounds Cytotoxic to Streptococcus. [Related pubchem assays: 1677 (Project Summary), 1915, 1914, 1902 (Retest at Dose), 1900 (Counter Screen), 1662 (Primary HTS)]; format: functional, organism-based
Cytochrome P450 2C9 = Cytochrome P450 2C9 (Homo sapiens, UniProt P11712)
Cytochrome P450 2C9, sequence (P11712 whole entry): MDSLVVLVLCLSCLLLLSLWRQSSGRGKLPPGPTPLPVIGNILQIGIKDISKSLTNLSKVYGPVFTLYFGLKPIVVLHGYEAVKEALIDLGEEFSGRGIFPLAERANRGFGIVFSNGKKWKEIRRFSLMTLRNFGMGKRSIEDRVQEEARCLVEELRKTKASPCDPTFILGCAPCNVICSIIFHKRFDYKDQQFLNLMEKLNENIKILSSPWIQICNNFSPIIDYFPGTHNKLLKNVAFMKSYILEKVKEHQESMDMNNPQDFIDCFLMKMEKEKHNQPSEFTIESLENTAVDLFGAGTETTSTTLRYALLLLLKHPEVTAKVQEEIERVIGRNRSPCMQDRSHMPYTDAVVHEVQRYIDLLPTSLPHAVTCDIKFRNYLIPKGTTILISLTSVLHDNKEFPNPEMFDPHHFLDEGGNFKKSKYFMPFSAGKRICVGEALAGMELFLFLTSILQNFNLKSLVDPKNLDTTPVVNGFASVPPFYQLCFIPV

5-hydroxytryptamine receptor 1E, sequence (P28566 whole entry): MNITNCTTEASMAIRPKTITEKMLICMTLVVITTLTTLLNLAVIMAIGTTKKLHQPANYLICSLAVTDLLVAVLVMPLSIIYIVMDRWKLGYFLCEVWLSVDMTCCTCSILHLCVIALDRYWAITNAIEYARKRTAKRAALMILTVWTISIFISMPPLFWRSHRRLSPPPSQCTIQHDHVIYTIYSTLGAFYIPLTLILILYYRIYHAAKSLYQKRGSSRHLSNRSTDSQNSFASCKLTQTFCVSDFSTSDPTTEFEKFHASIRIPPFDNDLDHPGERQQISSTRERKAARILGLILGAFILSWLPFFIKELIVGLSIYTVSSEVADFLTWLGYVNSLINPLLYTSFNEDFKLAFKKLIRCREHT
Sphingosine 1-phosphate receptor 3, sequence (Q99500 whole entry): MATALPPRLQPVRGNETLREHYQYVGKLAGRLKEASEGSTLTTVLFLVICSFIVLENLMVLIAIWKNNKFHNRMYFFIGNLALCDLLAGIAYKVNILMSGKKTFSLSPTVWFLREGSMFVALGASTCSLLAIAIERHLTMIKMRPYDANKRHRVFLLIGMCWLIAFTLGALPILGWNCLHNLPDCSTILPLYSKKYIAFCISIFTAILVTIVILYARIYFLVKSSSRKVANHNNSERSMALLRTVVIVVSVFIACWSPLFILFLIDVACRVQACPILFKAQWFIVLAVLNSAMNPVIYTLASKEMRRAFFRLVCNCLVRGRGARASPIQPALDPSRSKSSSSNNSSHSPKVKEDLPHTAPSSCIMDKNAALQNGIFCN
Sphingosine 1-phosphate receptor 2, sequence (O95136 whole entry): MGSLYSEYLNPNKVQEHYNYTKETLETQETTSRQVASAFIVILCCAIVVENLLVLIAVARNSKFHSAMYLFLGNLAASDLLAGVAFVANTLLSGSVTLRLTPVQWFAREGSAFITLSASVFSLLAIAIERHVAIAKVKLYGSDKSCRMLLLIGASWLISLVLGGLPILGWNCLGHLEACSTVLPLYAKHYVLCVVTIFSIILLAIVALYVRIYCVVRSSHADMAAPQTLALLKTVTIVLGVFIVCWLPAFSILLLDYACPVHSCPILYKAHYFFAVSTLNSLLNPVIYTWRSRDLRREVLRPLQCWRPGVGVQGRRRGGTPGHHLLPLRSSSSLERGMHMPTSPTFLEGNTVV

COc1ccccc1NC(=O)Nc1nc(CC(=O)N2CCN(c3ccccc3F)CC2)cs1
CC50 [1]: > 40 µM (active)
IC50 [2]: > 100 µM (active)

COc1cc2c(c(OC)c1OC)-c1ccc(OC)c(=O)cc1[C@@H](N(C)CC#CCO)CC2
EC50 (BJ [3]): 16.7 µM (inconclusive)
IC50 [4]: 0.226 µM (active)
EC50 (BJ [5]): 0.616 µM (inconclusive)
EC50 (BJ [6]): 9.89 µM (active)
EC50 [7]: 1.45 µM (inconclusive)
IC50 [8]: > 80 µM (inactive)

O=C(Nc1ccccc1)C(c1ccccc1)C1CCCC1 (stereo not given)
IC50 [9]: 6.6 µM (active)
IC50 [10]: 12.1 µM (not active)

Cc1cc(C(=O)CN(C)CC(=O)NC(C)C)c(C)n1Cc1ccccc1
EC50 [11]: > 30 µM (not active)

COc1ccc(Sc2ccc(NC(=O)c3ccccc3Cl)cc2C#N)cc1
IC50 [12]: > 109 µM (inactive)
EC50 [13]: 2.27 µM (active)
EC50 [14]: 1.21 µM (active)
EC50 (Streptokinase A [15]): 3.14 µM (active)
EC50 (Streptococcus [16]): > 150 µM (not active)
EC50 (Streptokinase A [17]): 4.98 µM (active)
IC50 [18]: > 9.26 µM (active)
EC50 (Streptococcus [19]): > 500 µM (not active)
AC50 (Cytochrome P450 2C9): 2.51 µM (inconclusive)
